# Test results: ChEMBL document CHEMBL5465560, “Selectivity Literature for EUbOPEN Chemogenomic Library” (2024)
# Assays:
# [1] = molecular target: Serine/threonine-protein kinase pim-1 (Homo sapiens, UniProt P11309); conditions: at 10 µM
# [2] = molecular target: Fibroblast growth factor receptor 3 (Homo sapiens, UniProt P22607); conditions: at 10 µM
# [3] = molecular target: Serine/threonine-protein kinase PAK 3 (Homo sapiens) (UniProt O75914); assay: Selectivity interaction (Kinase screening (Nanosyn)) EUB0000604a PAK3
# Serine/threonine-protein kinase PAK 3 (Homo sapiens), sequence (O75914 whole entry, looked up): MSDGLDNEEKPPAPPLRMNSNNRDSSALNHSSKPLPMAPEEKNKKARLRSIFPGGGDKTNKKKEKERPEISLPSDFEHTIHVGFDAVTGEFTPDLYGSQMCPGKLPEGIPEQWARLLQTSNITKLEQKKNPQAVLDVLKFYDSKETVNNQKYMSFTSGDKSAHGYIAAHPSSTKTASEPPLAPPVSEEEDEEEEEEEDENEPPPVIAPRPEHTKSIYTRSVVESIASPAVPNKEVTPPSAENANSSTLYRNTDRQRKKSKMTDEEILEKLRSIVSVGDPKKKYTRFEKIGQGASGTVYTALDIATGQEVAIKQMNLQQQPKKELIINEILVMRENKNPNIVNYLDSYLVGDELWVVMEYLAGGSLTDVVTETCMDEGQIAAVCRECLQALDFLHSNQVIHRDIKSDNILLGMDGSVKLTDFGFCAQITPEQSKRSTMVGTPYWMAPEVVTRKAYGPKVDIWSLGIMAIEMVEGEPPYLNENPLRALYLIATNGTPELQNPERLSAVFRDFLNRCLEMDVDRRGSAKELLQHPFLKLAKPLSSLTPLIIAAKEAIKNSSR
# [4] = molecular target: STE20-like serine/threonine-protein kinase (Homo sapiens, UniProt Q9H2G2); assay: Selectivity interaction (KinomeScan (DiscoverX)) EUB0001049a SLK; conditions: at 1 µM
# [5] = molecular target: Homeodomain-interacting protein kinase 2 (Homo sapiens, UniProt Q9H2X6); assay: Selectivity interaction (KinomeScan (DiscoverX)) EUB0001049a HIPK2; conditions: at 1 µM
# Homeodomain-interacting protein kinase 2, sequence (Q9H2X6 whole entry, looked up): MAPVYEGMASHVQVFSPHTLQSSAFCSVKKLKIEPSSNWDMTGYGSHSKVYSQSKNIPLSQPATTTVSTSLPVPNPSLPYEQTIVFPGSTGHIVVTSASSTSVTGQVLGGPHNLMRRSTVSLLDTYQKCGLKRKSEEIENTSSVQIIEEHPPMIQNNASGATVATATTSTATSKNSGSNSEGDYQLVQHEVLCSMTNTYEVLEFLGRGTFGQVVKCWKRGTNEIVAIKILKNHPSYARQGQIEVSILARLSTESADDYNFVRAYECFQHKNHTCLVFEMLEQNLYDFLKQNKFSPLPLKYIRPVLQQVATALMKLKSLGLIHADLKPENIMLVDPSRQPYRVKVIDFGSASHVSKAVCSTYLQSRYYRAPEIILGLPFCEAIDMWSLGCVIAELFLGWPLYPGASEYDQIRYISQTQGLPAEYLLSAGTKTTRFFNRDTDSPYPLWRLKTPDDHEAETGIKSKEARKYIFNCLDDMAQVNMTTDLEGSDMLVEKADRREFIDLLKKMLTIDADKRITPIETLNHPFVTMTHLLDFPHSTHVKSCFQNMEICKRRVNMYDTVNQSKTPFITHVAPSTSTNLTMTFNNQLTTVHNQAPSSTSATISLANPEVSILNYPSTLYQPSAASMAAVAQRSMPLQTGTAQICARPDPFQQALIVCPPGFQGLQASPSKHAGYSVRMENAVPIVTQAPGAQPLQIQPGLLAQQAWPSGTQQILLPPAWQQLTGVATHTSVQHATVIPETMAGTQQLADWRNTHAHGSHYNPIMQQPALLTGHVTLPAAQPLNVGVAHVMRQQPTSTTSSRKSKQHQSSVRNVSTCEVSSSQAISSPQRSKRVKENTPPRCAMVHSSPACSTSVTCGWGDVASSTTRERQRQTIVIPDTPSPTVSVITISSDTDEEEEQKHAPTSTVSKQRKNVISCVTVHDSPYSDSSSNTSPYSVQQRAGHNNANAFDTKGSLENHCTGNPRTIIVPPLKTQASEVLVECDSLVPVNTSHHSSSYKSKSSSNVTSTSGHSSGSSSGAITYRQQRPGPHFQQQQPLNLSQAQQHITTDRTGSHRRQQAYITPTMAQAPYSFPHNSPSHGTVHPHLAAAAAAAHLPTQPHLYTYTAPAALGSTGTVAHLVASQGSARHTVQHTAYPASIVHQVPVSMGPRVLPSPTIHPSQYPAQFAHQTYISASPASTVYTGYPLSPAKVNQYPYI
# [6] = molecular target: Serine/threonine-protein kinase OSR1 (Homo sapiens) (UniProt O95747); assay: Selectivity interaction (Ambit KINOMEscan and KiNATiv profiling in Jurkat cells) EUB0000090b OXSR1; format: cell-based; conditions: at 1 µM
# [7] = molecular target: Ribosomal protein S6 kinase alpha-1 (Homo sapiens, UniProt Q15418); assay: Selectivity interaction (ActivX KiNativ screen (kinase selectivity in THP-1 cell lysates)) EUB0000639a RPS6KA1; format: subcellular; conditions: lysate, at 0.01 µM
# Ribosomal protein S6 kinase alpha-1, sequence (Q15418 whole entry): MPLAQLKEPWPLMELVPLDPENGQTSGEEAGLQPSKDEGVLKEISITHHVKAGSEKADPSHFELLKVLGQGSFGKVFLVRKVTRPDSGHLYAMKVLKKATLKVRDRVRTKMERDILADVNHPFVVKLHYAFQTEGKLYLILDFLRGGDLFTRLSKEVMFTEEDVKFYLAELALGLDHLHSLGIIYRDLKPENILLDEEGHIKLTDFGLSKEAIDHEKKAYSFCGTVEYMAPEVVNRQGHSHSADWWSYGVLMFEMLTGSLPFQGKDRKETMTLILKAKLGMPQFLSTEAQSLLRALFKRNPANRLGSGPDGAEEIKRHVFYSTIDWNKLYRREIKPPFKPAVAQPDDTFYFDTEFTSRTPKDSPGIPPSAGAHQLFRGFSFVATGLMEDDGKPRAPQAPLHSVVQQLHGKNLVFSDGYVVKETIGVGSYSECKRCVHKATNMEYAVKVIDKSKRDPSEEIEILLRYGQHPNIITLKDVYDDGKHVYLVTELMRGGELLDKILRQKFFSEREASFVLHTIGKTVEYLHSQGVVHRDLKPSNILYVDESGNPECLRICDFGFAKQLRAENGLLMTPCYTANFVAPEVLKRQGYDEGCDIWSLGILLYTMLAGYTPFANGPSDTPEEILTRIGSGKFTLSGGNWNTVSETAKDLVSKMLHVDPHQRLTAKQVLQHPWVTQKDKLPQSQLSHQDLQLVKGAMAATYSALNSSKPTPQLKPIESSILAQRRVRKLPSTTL
# [8] = molecular target: Serine/threonine-protein kinase PLK2 (Homo sapiens, UniProt Q9NYY3); assay: Selectivity interaction (Kinase panel (Z-LYTE Assay)) EUB0001632a PLK2; conditions: at 10 µM
# Serine/threonine-protein kinase PLK2, sequence (Q9NYY3 whole entry, looked up): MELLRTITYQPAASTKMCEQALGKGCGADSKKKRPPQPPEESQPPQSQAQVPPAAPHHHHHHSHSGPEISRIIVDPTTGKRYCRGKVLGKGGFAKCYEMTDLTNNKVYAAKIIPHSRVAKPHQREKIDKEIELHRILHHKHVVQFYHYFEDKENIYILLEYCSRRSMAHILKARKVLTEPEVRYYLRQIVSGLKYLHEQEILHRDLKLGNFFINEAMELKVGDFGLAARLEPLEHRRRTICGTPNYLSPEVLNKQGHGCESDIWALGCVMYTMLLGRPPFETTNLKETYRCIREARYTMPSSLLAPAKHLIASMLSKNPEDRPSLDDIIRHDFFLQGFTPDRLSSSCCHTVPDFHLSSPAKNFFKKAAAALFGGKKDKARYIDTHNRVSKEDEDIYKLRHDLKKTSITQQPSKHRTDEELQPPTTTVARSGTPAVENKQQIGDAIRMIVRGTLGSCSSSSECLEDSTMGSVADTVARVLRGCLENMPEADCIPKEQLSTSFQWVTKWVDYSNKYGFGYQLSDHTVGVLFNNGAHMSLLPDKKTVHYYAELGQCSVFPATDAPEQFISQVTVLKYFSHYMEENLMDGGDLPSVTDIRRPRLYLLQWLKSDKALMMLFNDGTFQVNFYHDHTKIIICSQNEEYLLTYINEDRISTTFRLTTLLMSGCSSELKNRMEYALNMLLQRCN
# [9] = tested on: Mast/stem cell growth factor receptor Kit (Homo sapiens), P10721 [V559D,T670I]; conditions: at 10 µM
# Mast/stem cell growth factor receptor Kit (Homo sapiens), P10721 [V559D,T670I], sequence (P10721 whole entry V559D/T670I, canonical isoform): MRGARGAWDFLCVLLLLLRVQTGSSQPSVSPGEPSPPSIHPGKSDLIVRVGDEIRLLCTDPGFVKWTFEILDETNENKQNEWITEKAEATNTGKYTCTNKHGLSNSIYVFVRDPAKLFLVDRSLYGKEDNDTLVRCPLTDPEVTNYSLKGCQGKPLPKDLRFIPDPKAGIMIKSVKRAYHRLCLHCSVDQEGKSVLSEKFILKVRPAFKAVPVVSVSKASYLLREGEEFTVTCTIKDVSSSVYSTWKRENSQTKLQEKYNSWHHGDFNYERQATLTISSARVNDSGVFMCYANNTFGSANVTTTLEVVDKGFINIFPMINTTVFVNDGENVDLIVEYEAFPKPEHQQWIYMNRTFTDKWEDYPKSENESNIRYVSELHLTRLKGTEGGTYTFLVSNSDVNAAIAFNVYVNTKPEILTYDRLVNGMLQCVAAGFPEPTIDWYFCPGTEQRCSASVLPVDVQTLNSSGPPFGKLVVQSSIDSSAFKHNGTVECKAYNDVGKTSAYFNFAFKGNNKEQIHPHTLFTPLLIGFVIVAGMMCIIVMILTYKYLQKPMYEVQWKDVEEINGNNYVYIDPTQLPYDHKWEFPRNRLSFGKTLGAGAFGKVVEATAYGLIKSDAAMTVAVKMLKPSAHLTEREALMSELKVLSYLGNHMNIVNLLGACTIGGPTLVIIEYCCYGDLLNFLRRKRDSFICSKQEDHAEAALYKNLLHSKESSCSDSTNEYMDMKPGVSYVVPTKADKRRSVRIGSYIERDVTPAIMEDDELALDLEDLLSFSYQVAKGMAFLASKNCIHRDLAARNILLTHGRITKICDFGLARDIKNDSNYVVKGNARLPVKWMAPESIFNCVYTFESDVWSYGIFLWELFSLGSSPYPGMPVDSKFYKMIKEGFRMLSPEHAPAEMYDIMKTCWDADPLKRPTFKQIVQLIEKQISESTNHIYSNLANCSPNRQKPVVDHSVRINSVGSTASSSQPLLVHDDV
# [10] = molecular target: Casein kinase I isoform gamma-2 (Homo sapiens) (UniProt P78368); assay: Selectivity interaction (KinomeScan (DiscoverX)) EUB0000229b CSNK1G2; conditions: at 10 µM
# Casein kinase I isoform gamma-2 (Homo sapiens), sequence (P78368 whole entry, looked up, canonical isoform): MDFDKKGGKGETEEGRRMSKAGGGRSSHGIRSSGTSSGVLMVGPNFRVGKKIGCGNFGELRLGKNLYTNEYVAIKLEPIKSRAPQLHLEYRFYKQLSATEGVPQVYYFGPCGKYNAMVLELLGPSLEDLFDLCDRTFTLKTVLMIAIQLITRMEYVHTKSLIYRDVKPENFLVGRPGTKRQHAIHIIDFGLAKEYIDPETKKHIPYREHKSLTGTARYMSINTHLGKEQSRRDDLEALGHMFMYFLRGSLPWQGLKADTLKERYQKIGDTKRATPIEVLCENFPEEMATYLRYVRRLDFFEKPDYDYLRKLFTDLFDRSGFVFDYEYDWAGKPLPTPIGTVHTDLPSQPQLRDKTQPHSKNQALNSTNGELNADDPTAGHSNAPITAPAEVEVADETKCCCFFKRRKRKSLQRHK
# [11] = molecular target: 5-hydroxytryptamine receptor 7 (Homo sapiens) (UniProt P34969); assay: Selectivity interaction (GPCR panel (PDSP screen)) EUB0001079a HTR7; conditions: at 10 µM
# 5-hydroxytryptamine receptor 7 (Homo sapiens), sequence (P34969 whole entry): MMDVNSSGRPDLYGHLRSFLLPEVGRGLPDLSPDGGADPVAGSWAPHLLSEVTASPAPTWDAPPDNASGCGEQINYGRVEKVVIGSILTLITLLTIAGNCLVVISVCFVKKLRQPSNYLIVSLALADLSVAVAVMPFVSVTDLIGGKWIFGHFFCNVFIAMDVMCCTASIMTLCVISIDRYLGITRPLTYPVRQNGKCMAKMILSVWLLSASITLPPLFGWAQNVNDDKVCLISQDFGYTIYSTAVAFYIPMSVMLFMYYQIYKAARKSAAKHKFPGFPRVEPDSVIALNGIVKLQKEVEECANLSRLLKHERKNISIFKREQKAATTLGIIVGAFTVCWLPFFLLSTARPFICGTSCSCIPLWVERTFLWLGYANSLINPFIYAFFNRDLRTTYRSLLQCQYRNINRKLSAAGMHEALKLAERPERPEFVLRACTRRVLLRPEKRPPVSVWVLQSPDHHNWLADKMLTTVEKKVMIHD
# [12] = molecular target: T1, Ribosomal protein S6 kinase delta-1 (Homo sapiens) (UniProt Q96S38); assay: Selectivity interaction (ActivX KiNativ screen (ex vivo kinase selectivity in human PBMCs)) EUB0001619a RPS6KC1; format: cell-based; conditions: PBMC, at 1 µM
# T1 sequence (whole entry): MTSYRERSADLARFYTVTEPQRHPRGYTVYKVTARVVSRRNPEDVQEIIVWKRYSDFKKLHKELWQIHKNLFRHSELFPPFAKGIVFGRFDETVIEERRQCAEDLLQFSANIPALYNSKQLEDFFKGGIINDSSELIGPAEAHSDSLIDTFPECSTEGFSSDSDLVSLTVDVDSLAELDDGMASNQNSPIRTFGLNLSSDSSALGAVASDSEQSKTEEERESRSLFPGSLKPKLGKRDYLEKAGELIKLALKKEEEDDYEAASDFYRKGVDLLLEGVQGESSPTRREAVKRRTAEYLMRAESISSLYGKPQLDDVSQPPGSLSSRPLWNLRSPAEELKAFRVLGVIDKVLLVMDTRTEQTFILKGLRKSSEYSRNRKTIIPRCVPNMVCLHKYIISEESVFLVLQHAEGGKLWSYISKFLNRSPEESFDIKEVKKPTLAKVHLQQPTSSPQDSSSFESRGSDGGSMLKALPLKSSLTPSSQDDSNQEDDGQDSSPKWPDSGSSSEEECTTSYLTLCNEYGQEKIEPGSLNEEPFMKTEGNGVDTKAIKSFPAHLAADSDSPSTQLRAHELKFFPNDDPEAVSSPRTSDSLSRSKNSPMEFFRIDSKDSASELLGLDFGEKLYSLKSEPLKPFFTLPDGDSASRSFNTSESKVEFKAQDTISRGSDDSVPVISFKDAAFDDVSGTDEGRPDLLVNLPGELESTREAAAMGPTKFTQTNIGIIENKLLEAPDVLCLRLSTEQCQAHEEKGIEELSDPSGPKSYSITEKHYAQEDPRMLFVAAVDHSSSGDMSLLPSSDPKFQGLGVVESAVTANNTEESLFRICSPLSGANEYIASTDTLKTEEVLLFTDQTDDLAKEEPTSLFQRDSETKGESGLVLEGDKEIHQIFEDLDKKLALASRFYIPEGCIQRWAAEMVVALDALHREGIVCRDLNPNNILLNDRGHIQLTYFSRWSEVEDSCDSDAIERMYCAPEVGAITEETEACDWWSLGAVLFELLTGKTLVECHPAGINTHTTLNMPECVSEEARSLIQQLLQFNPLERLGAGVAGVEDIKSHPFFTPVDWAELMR
# [13] = molecular target: T2, Serine/threonine-protein kinase ULK1 (Homo sapiens) (UniProt O75385); assay: Selectivity interaction (KinomeScan (DiscoverX)) EUB0000607a ULK1; conditions: at 10 µM
# T2 sequence (whole entry): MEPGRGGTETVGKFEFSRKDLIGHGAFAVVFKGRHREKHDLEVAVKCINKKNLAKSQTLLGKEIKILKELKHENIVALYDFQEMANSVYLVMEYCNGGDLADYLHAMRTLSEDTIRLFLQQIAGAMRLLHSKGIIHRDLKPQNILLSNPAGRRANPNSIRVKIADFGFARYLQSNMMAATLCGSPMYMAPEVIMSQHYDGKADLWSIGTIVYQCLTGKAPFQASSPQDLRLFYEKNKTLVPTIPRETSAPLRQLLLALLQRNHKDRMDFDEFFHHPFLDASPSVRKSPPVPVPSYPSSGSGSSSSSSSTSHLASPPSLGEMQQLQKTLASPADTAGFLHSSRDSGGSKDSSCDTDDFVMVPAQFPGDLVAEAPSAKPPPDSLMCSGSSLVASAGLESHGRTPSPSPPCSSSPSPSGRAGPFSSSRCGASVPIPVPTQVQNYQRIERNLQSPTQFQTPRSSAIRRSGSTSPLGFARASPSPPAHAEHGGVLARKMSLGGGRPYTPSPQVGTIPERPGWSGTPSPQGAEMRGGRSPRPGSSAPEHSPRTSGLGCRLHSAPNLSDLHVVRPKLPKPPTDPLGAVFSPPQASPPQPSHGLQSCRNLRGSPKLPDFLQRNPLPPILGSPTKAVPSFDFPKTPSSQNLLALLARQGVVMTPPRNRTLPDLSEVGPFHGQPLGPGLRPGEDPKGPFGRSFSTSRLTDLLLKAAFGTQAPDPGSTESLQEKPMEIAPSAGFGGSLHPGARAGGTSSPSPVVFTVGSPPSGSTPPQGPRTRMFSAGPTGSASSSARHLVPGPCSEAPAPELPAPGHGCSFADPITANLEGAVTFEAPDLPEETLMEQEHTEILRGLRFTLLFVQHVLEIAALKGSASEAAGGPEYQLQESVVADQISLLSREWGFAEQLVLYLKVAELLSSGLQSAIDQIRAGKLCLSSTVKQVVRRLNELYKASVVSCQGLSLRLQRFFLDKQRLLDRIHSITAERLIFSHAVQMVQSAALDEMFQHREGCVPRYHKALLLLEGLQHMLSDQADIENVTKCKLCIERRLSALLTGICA
compound,measurement,setting,value
Cc1cc([C@@H](C)Nc2ccccc2C(=O)O)c2nc(N3CCOCC3)cc(=O)n2c1 [AZD-6482],% of control,[1],100%
same,% of control,[2],83%
Cc1cnc(Nc2ccc(F)cc2Cl)nc1-c1c[nH]c(C(=O)N[C@H](CO)c2cccc(Cl)c2)c1,% of inhibition,[3],3%
COc1cc(Nc2nc(C)cc(-c3cnn4nc(OC)ccc34)n2)cc(C(F)(F)F)c1,% of control,[4],88%
same,% of control,[5],94%
CN(C)C/C=C/C(=O)Nc1ccc(C(=O)N2CCCC(Nc3ncc(Cl)c(-c4c[nH]c5ccccc45)n3)C2)cc1 (stereo not drawn),% of control,[6],87%
CC[C@@H]1[C@H](F)C(=O)N[C@@H]1COc1nccc2cc(C(N)=O)c(OC)cc12 [ZIMLOVISERTIB],% of inhibition,[7],3.6%
Cn1cc(-n2cnc3c(NCc4nc5cc(Cl)c(Cl)cc5[nH]4)nc(N4CCOCC4)nc32)cn1,% of control,[8],-0.658%
CCN(CC)CCCCNc1ncc2cc(-c3cc(OC)cc(OC)c3)c(NC(=O)NC(C)(C)C)nc2n1,% of control,[9],100%
COc1cc(N(C)c2ccnc3ccc(C(F)(F)F)cc23)cc(OC)c1OC,% binding,[10],96%
Nc1cnc(N2CCc3cc(S(=O)(=O)Nc4c(F)cc(Cl)cc4F)cc(N4CCCC4=O)c32)nc1 [TP-020n],% of inhibition,[11],0.94%
N#Cc1cccc(-c2c[nH]c3ncnc(N4CCOCC4)c23)c1,% of inhibition,[12],-2%
CNC(=O)Nc1ccc(-c2nc(N3CC4CCC(C3)O4)c3cnn(C4CCC5(CC4)OCCO5)c3n2)cc1,% of control,[13],100%
